According to patent publication US20260207615A1, “FLUOROPYRIDOPYRIMIDINE AND FLUOROQUINAZOLINE DERIVATIES AND METHODS OF USE THEREOF” (Frontier Medicines Corporation, priority 2022, published 2026):

The compounds below were run against T1, KRAS G12C and cRAF interaction (Homo sapiens, UniProt P01116, C118S/C51S/C80L/G12C) (assay: Inhibition of KRAS G12C and cRAF binding (AlphaScreen)). Conditions: KRAS G12C (Cys-light, aa 1-169) preloaded with GMPPNP, cRaf RBD (aa 50-131), 2 hours incubation.
T1 construct: truncated version comprising amino acids 1-169
T1 sequence (P01116 1-169 isoform P01116-2 G12C/C51S/C80L/C118S): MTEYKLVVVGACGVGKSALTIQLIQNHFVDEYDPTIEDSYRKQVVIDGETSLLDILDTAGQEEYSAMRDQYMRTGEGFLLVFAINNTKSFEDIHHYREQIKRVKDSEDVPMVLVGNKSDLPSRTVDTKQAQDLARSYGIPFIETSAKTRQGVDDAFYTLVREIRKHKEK
Assay type: biochemical
Description: The AlphaScreen technology was used to determine IC50s for compound inhibition of KRAS G12C (present as the Cys-light (C51S, C80L and C118S), truncated version comprising amino acids 1-169) and cRAF interaction. Compounds were diluted in 100% DMSO and each compound concentration was spotted at 200 nl/well onto low volume, white 384 well plates. The KRAS G12C contained a biotin-AviTag and the cRaf, as Ras-binding domain (amino acids 50-131, RBD), was GST-tagged. KRAS G12C was preloaded with the GTP analogue Guanosine 5′-[β,γ-imido]triphosphate (GMPPNP). The KRAS G12C was diluted in 25 mM Hepes, pH 7.4, 150 mM NaCl, 5 mM MgCl2, 0.01% TritonX-100 and 10 μM GMPPNP and added at 10 μl/well to compound-spotted plates resulting in a DMSO concentration of 2%. Plates were incubated for 2 hours. A mixture of RBD and the AlphaScreen streptavidin donor and glutathione acceptor beads diluted in 25 mM Hepes, pH 7.4, 150 mM NaCl, 5 mM MgCl2, 0.01% TritonX-100 and 2% DMSO was then added at 10 μl/well and incubated for 60-90 minutes before the samples were read for emission at 570 nm after excitation of the donor beads at 680 nm. All incubations were performed at room temperature. The final top compound concentration was 50 μM with 1:3 titrations for 10-point dose response curves. Final assay conditions were 0.5 nM KRAS G12C, 0.75 nM RBD and 5 μg/ml each of AlphaScreen donor and acceptor beads. IC50S were determined using nonlinear regression fit of [inhibitor] vs. response (4 parameters).
A counter assay was also set up to rule out inhibitors of the AlphaScreen technology itself. Compound plates were incubated for 2 hours as above with buffer only.
The AlphaScreen beads were added as above except biotin-AviTag-GST was substituted for the RBD. Samples were read and analyzed as above.
An IC50 of 100 to 500 nM was found for `C=CC(=O)N1CCN(c2nc(OC[C@@H]3CCCN3C)nc3c(F)c(-c4cccc5cccc(Cl)c45)ncc23)CC12COC2` [Example 1, (S)-1-(8-(7-(8-chloronaphthalen-1-yl)-8-fluoro-2-((1-methylpyrrolidin-2-yl)methoxy)pyrido[4,3-d]pyrimidin-4-yl)-2-oxa-5,8-diazaspiro[3.5]nonan-5-yl) prop-2-en-1-one] in this work. An IC50 of 100 to 500 nM was found for `Cc1nccc(/C=C/C(=O)N2CCN(c3nc(OC[C@@]45CCCN4C[C@H](F)C5)nc4c(F)c(-c5cccc6cccc(Cl)c56)ncc34)CC23COC3)n1` [Example 2, (E)-1-(8-(7-(8-chloronaphthalen-1-yl)-8-fluoro-2-(((2R,7aS)-2-fluorotetrahydro-1H-pyrrolizin-7a(5H)-yl)methoxy)pyrido[4,3-d]pyrimidin-4-yl)-2-oxa-5,8-diazaspiro[3.5]nonan-5-yl)-3-(2-methylpyrimidin-4-yl) prop-2-en-1-one] in this work. An IC50 of 10 to 100 nM was found for `CN(C/C=C/C(=O)N1CCN(c2nc(OC[C@@]34CCCN3C[C@H](F)C4)nc3c(F)c(-c4cccc5cccc(Cl)c45)ncc23)CC12COC2)CC1COC1` [Example 3, (E)-1-(8-(7-(8-chloronaphthalen-1-yl)-8-fluoro-2-(((2R,7aS)-2-fluorotetrahydro-1H-pyrrolizin-7a(5H)-yl)methoxy)pyrido[4,3-d]pyrimidin-4-yl)-2-oxa-5,8-diazaspiro[3.5]nonan-5-yl)-4-(methyl(oxetan-3-ylmethyl)amino)but-2-en-1-one] in this work. An IC50 of under 10 nM was found for `O=C(/C=C/CN1[C@@H]2CC[C@H]1COC2)N1CCN(c2nc(OC[C@@]34CCCN3C[C@H](F)C4)nc3c(F)c(-c4cccc5cccc(Cl)c45)ncc23)CC12COC2` [Example 4, (E)-4-((1R,5S)-3-oxa-8-azabicyclo[3.2.1]octan-8-yl)-1-(8-(7-(8-chloronaphthalen-1-yl)-8-fluoro-2-(((2R,7aS)-2-fluorotetrahydro-1H-pyrrolizin-7a(5H)-yl)methoxy)pyrido[4,3-d]pyrimidin-4-yl)-2-oxa-5,8-diazaspiro[3.5]nonan-5-yl) but-2-en-1-one] in this work. An IC50 of 10 to 100 nM was found for `Cc1nccc(/C=C/C(=O)N2CCN(c3nc(OC[C@@]45CCCN4C[C@H](F)C5)nc4c(F)c(-c5cccc6ccc(F)c(F)c56)ncc34)CC23COC3)n1` [Example 5, (E)-1-(8-(7-(7,8-difluoronaphthalen-1-yl)-8-fluoro-2-(((2R,7aS)-2-fluorotetrahydro-1H-pyrrolizin-7a(5H)-yl)methoxy)pyrido[4,3-d]pyrimidin-4-yl)-2-oxa-5,8-diazaspiro[3.5]nonan-5-yl)-3-(2-methylpyrimidin-4-yl) prop-2-en-1-one] in this work. An IC50 of 10 to 100 nM was found for `Cc1nccc(/C=C/C(=O)N2CCN(c3nc(OC[C@@]45CCCN4C[C@H](F)C5)nc4c(F)c(-c5cccc6ccc(F)c(Cl)c56)ncc34)CC23COC3)n1` [Example 6, (E)-1-(8-(7-(8-chloro-7-fluoronaphthalen-1-yl)-8-fluoro-2-(((2R,7aS)-2-fluorotetrahydro-1H-pyrrolizin-7a(5H)-yl)methoxy)pyrido[4,3-d]pyrimidin-4-yl)-2-oxa-5,8-diazaspiro[3.5]nonan-5-yl)-3-(2-methylpyrimidin-4-yl) prop-2-en-1-one] in this work. An IC50 of 100 to 500 nM was found for `Cc1nccc(/C=C/C(=O)N2CCN(c3nc(OCC45CCCN4CCC5)nc4c(F)c(-c5cccc6cccc(Cl)c56)ncc34)CC23COC3)n1` [Example 7, (E)-1-(8-(7-(8-chloronaphthalen-1-yl)-8-fluoro-2-((tetrahydro-1H-pyrrolizin-7a(5H)-yl)methoxy)pyrido[4,3-d]pyrimidin-4-yl)-2-oxa-5,8-diazaspiro[3.5]nonan-5-yl)-3-(2-methylpyrimidin-4-yl) prop-2-en-1-one] in this work. An IC50 of 10 to 100 nM was found for `CO[C@@H]1CCN(C/C=C/C(=O)N2CCN(c3nc(OC[C@@]45CCCN4C[C@H](F)C5)nc4c(F)c(-c5cccc6ccc(F)c(Cl)c56)ncc34)CC23COC3)C1` [Example 8, (E)-1-(8-(7-(8-chloro-7-fluoronaphthalen-1-yl)-8-fluoro-2-(((2R,7aS)-2-fluorotetrahydro-1H-pyrrolizin-7a(5H)-yl)methoxy)pyrido[4,3-d]pyrimidin-4-yl)-2-oxa-5,8-diazaspiro[3.5]nonan-5-yl)-4-((R)-3-methoxypyrrolidin-1-yl) but-2-en-1-one] in this work. An IC50 of under 10 nM was found for `O=C(/C=C/CN1C[C@H]2C[C@@H]1CO2)N1CCN(c2nc(OC[C@@]34CCCN3C[C@H](F)C4)nc3c(F)c(-c4cccc5ccc(F)c(Cl)c45)ncc23)CC12COC2` [Example 9, (E)-4-((1R,4R)-2-oxa-5-azabicyclo[2.2.1]heptan-5-yl)-1-(8-(7-(8-chloro-7-fluoronaphthalen-1-yl)-8-fluoro-2-(((2R,7aS)-2-fluorotetrahydro-1H-pyrrolizin-7a(5H)-yl)methoxy)pyrido[4,3-d]pyrimidin-4-yl)-2-oxa-5,8-diazaspiro[3.5]nonan-5-yl) but-2-en-1-one] in this work. An IC50 of 100 to 500 nM was found for `Cc1nccc(/C=C/C(=O)N2CCN(c3nc(OCC45CCCN4CCC5)nc4c(F)c(-c5cccc6ccc(F)c(F)c56)ncc34)CC23COC3)n1` [Example 10, (E)-1-(8-(7-(7,8-difluoronaphthalen-1-yl)-8-fluoro-2-((tetrahydro-1H-pyrrolizin-7a(5H)-yl)methoxy)pyrido[4,3-d]pyrimidin-4-yl)-2-oxa-5,8-diazaspiro[3.5]nonan-5-yl)-3-(2-methylpyrimidin-4-yl) prop-2-en-1-one] in this work. An IC50 of 100 to 500 nM was found for `Cc1nccc(/C=C/C(=O)N2CCN(c3nc(OCC45CCCN4CCC5)nc4c(F)c(-c5cccc6ccc(F)c(Cl)c56)ncc34)CC23COC3)n1` [Example 11, (E)-1-(8-(7-(8-chloro-7-fluoronaphthalen-1-yl)-8-fluoro-2-((tetrahydro-1H-pyrrolizin-7a(5H)-yl)methoxy)pyrido[4,3-d]pyrimidin-4-yl)-2-oxa-5,8-diazaspiro[3.5]nonan-5-yl)-3-(2-methylpyrimidin-4-yl) prop-2-en-1-one] in this work. An IC50 of at least 500 nM was found for `O=C(/C=C/CN1CCOCC1)N1CCN(c2nc(OC[C@@]34CCCN3C[C@H](F)C4)nc3c(F)c(-c4cccc5cccc(Cl)c45)ncc23)CC12COC2` [Example 12, (E)-1-(8-(7-(8-chloronaphthalen-1-yl)-8-fluoro-2-(((2R,7aS)-2-fluorotetrahydro-1H-pyrrolizin-7a(5H)-yl)methoxy)pyrido[4,3-d]pyrimidin-4-yl)-2-oxa-5,8-diazaspiro[3.5]nonan-5-yl)-4-morpholinobut-2-en-1-one] in this work. An IC50 of 10 to 100 nM was found for `O=C(/C=C/CN1C[C@H]2C[C@@H]1CO2)N1CCN(c2nc(OC[C@@]34CCCN3C[C@H](F)C4)nc3c(F)c(-c4cccc5cccc(Cl)c45)ncc23)CC12COC2` [Example 13, (E)-4-((1R,4R)-2-oxa-5-azabicyclo[2.2.1]heptan-5-yl)-1-(8-(7-(8-chloronaphthalen-1-yl)-8-fluoro-2-(((2R,7aS)-2-fluorotetrahydro-1H-pyrrolizin-7a(5H)-yl)methoxy)pyrido[4,3-d]pyrimidin-4-yl)-2-oxa-5,8-diazaspiro[3.5]nonan-5-yl) but-2-en-1-one] in this work. An IC50 of 10 to 100 nM was found for `O=C(/C=C/CN1CC2CC(C1)O2)N1CCN(c2nc(OC[C@@]34CCCN3C[C@H](F)C4)nc3c(F)c(-c4cccc5cccc(Cl)c45)ncc23)CC12COC2` [Example 14, (E)-4-(6-oxa-3-azabicyclo[3.1.1]heptan-3-yl)-1-(8-(7-(8-chloronaphthalen-1-yl)-8-fluoro-2-(((2R,7aS)-2-fluorotetrahydro-1H-pyrrolizin-7a(5H)-yl)methoxy)pyrido[4,3-d]pyrimidin-4-yl)-2-oxa-5,8-diazaspiro[3.5]nonan-5-yl) but-2-en-1-one] in this work. An IC50 of 10 to 100 nM was found for `O=C(/C=C/CN1CC2CCC(C1)O2)N1CCN(c2nc(OC[C@@]34CCCN3C[C@H](F)C4)nc3c(F)c(-c4cccc5cccc(Cl)c45)ncc23)CC12COC2` [Example 15, (E)-4-(8-oxa-3-azabicyclo[3.2.1]octan-3-yl)-1-(8-(7-(8-chloronaphthalen-1-yl)-8-fluoro-2-(((2R,7aS)-2-fluorotetrahydro-1H-pyrrolizin-7a(5H)-yl)methoxy)pyrido[4,3-d]pyrimidin-4-yl)-2-oxa-5,8-diazaspiro[3.5]nonan-5-yl) but-2-en-1-one] in this work. An IC50 of 100 to 500 nM was found for `O=C(C#CCN1CCOCC1)N1CCN(c2nc(OC[C@@]34CCCN3C[C@H](F)C4)nc3c(F)c(-c4cccc5cccc(Cl)c45)ncc23)CC12COC2` [Example 16, 1-(8-(7-(8-chloronaphthalen-1-yl)-8-fluoro-2-(((2R,7aS)-2-fluorotetrahydro-1H-pyrrolizin-7a(5H)-yl)methoxy)pyrido[4,3-d]pyrimidin-4-yl)-2-oxa-5,8-diazaspiro[3.5]nonan-5-yl)-4-morpholinobut-2-yn-1-one] in this work.
